Molecules are shown by their SMILES.

One test addresses T1, KIT(A829P) (Homo sapiens, UniProt P10721, A829P).
T1 construct: purchased Eurofins DiscoverX KINOMEscan
Put plainly: KINOMEscan 1 μM, KIT(A829P). In kind it is binding. The note with it: 1000 nM; Entrez KIT; read-out: Percent Control. The text has this:
(§1) Supplement cells-12-00287-s001.zip/File S2. KinomeScan data for the CAMKK2 probe and negative control.xlsx, sheet "SGC-CAMKK2-1" | column: Percent Control

The next test addresses T2, DYRK2 (Homo sapiens, UniProt Q92630).
T2 construct: purchased Eurofins DiscoverX KINOMEscan
The experiment in a line: KINOMEscan 1 μM, DYRK2. Particulars: 1000 nM; Entrez DYRK2; read-out: Percent Control. It counts as binding.
Text: as §1

In another test the target is T3, STK35 (Homo sapiens, UniProt Q8TDR2).
T3 construct: purchased Eurofins DiscoverX KINOMEscan
Put plainly: KINOMEscan 1 μM, STK35. It counts as binding. The note with it: 1000 nM; Entrez STK35; read-out: Percent Control.
Text: as §1

In another test the target is T4, SLK (Homo sapiens, UniProt Q9H2G2).
T4 construct: purchased Eurofins DiscoverX KINOMEscan
Put plainly: KINOMEscan 1 μM, SLK. It counts as binding. Particulars: 1000 nM; Entrez SLK; read-out: Percent Control.
Text: as §1

A further test addresses T5, TBK1 (Homo sapiens, UniProt Q9UHD2).
T5 construct: purchased Eurofins DiscoverX KINOMEscan
Put plainly: KINOMEscan 1 μM, TBK1. In kind it is binding. Particulars: 1000 nM; Entrez TBK1; read-out: Percent Control.
Text: as §1

Test [1] concerns the target T6, ARK5 (Homo sapiens, UniProt O60285).
T6 construct: purchased Eurofins DiscoverX KINOMEscan
Put plainly: KINOMEscan 1 μM, ARK5. It counts as binding. The note with it: 1000 nM; Entrez NUAK1; read-out: Percent Control.
Text: as §1

A further test has as its target T7, AXL (Homo sapiens, UniProt P30530).
T7 construct: purchased Eurofins DiscoverX KINOMEscan
Put plainly: KINOMEscan 1 μM, AXL. It counts as binding. The note with it: 1000 nM; Entrez AXL; read-out: Percent Control.
Text: as §1

The next test concerns the target T8, BUB1 (Homo sapiens, UniProt O43683).
T8 construct: purchased Eurofins DiscoverX KINOMEscan
Put plainly: KINOMEscan 1 μM, BUB1. In kind it is binding. The note with it: 1000 nM; Entrez BUB1; read-out: Percent Control.
Text: as §1

The target in a further test is T9, CDK4 (Homo sapiens, UniProt P11802).
T9 construct: purchased Eurofins DiscoverX KINOMEscan
Put plainly: KINOMEscan 1 μM, CDK4. In kind it is binding. Particulars: 1000 nM; Entrez CDK4; read-out: Percent Control.
Text: as §1

In another test the target is T10, DRAK1 (Homo sapiens, UniProt Q9UEE5).
T10 construct: purchased Eurofins DiscoverX KINOMEscan
Put plainly: KINOMEscan 1 μM, DRAK1. In kind it is binding. Particulars: 1000 nM; Entrez STK17A; read-out: Percent Control.
Text: as §1

A further test addresses T11, DYRK1B (Homo sapiens, UniProt Q9Y463).
T11 construct: purchased Eurofins DiscoverX KINOMEscan
The experiment in a line: KINOMEscan 1 μM, DYRK1B. The note with it: 1000 nM; Entrez DYRK1B; read-out: Percent Control. In kind it is binding.
Text: as §1

Test [2] concerns the target T12, ERBB4 (Homo sapiens, UniProt Q15303).
T12 construct: purchased Eurofins DiscoverX KINOMEscan
The experiment in a line: KINOMEscan 1 μM, ERBB4. It counts as binding. The note with it: 1000 nM; Entrez ERBB4; read-out: Percent Control.
Text: as §1

Another test addresses T13, GRK1 (Homo sapiens, UniProt Q15835).
T13 construct: purchased Eurofins DiscoverX KINOMEscan
Put plainly: KINOMEscan 1 μM, GRK1. It counts as binding. Particulars: 1000 nM; Entrez GRK1; read-out: Percent Control.
Text: as §1

For a further test, the target named is T14, LYN (Homo sapiens, UniProt P07948).
T14 construct: purchased Eurofins DiscoverX KINOMEscan
The experiment in a line: KINOMEscan 1 μM, LYN. In kind it is binding. Particulars: 1000 nM; Entrez LYN; read-out: Percent Control.
Text: as §1

In the next test the target is T15, MEK1 (Homo sapiens, UniProt Q02750).
T15 construct: purchased Eurofins DiscoverX KINOMEscan
The experiment in a line: KINOMEscan 1 μM, MEK1. In kind it is binding. The note with it: 1000 nM; Entrez MAP2K1; read-out: Percent Control.
Text: as §1

Another test deals with T16, NIM1 (Homo sapiens, UniProt Q8IY84).
T16 construct: purchased Eurofins DiscoverX KINOMEscan
The experiment in a line: KINOMEscan 1 μM, NIM1. It counts as binding. Particulars: 1000 nM; Entrez MGC42105; read-out: Percent Control.
Text: as §1

The target of test [3] is T17, PAK7 (Homo sapiens, UniProt Q9P286).
T17 construct: purchased Eurofins DiscoverX KINOMEscan
The experiment in a line: DiscoverX KINOMEscan binding assay at 1 μM, PAK7. The note with it: Compound Concentration 1000 nM, read-out: Percent Control.
Text: as §1

In another test the target is T18, ROCK1 (Homo sapiens, UniProt Q13464).
T18 construct: purchased Eurofins DiscoverX KINOMEscan
Put plainly: DiscoverX KINOMEscan binding assay at 1 μM, ROCK1. Particulars: Compound Concentration 1000 nM, read-out: Percent Control.
Text: as §1

The target of a further test is T19, TGFBR1 (Homo sapiens, UniProt P36897).
T19 construct: purchased Eurofins DiscoverX KINOMEscan
The experiment in a line: DiscoverX KINOMEscan binding assay at 1 μM, TGFBR1. Particulars: Compound Concentration 1000 nM, read-out: Percent Control.
Text: as §1

For the next test, the target named is T20, TSSK1B (Homo sapiens, UniProt Q9BXA7).
T20 construct: purchased Eurofins DiscoverX KINOMEscan
The experiment in a line: DiscoverX KINOMEscan binding assay at 1 μM, TSSK1B. Particulars: Compound Concentration 1000 nM, read-out: Percent Control.
Text: as §1

Test [4] has as its target T21, TYK2(JH2domain-pseudokinase) (Homo sapiens, UniProt P29597).
T21 construct: TYK2(JH2domain-pseudokinase); purchased Eurofins DiscoverX KINOMEscan
Put plainly: DiscoverX KINOMEscan binding assay at 1 μM, TYK2(JH2domain-pseudokinase). The note with it: Compound Concentration 1000 nM, read-out: Percent Control.
Text: as §1

Another test has as its target T22, CAMK1B (Homo sapiens, UniProt Q6P2M8).
T22 construct: purchased Eurofins DiscoverX KINOMEscan
The experiment in a line: KINOMEscan at 1 μM, CAMK1B. In kind it is binding. Particulars: 1000 nM, read-out: Percent Control. From the text:
(§2) Supplement cells-12-00287-s001.zip/File S2. KinomeScan data for the CAMKK2 probe and negative control.xlsx, sheet "SGC-CAMKK2-1N" | column: Percent Control

A further test has as its target T23, PHKG2 (Homo sapiens, UniProt P15735).
T23 construct: purchased Eurofins DiscoverX KINOMEscan
Put plainly: KINOMEscan at 1 μM, PHKG2. It counts as binding. Particulars: 1000 nM, read-out: Percent Control.
Text: as §2

The target in a further test is T24, EPHA2 (Homo sapiens, UniProt P29317).
T24 construct: purchased Eurofins DiscoverX KINOMEscan
The experiment in a line: KINOMEscan at 1 μM, EPHA2. It counts as binding. Particulars: 1000 nM, read-out: Percent Control.
Text: as §2

The next test addresses T25, SRPK2 (Homo sapiens, UniProt P78362).
T25 construct: purchased Eurofins DiscoverX KINOMEscan
Put plainly: KINOMEscan at 1 μM, SRPK2. Particulars: 1000 nM, read-out: Percent Control. It counts as binding.
Text: as §2

Test [5] has as its target T12, ERBB4. The experiment in a line: KINOMEscan at 1 μM, ERBB4. In kind it is binding. The note with it: 1000 nM, read-out: Percent Control.
Text: as §2

The target in test [6] is T6, ARK5. Put plainly: KINOMEscan at 1 μM, ARK5. It counts as binding. Particulars: 1000 nM, read-out: Percent Control.
Text: as §2

Test [7] concerns the target T17, PAK7. The experiment in a line: KINOMEscan at 1 μM, PAK7. In kind it is binding. Particulars: 1000 nM, read-out: Percent Control.
Text: as §2

Another test addresses T26, EPHB1 (Homo sapiens, UniProt P54762).
T26 construct: purchased Eurofins DiscoverX KINOMEscan
Put plainly: KINOMEscan at 1 μM, EPHB1. In kind it is binding. The note with it: 1000 nM, read-out: Percent Control.
Text: as §2

The target in another test is T27, DDR1 (Homo sapiens, UniProt Q08345).
T27 construct: purchased Eurofins DiscoverX KINOMEscan
The experiment in a line: KINOMEscan at 1 μM, DDR1. In kind it is binding. Particulars: 1000 nM, read-out: Percent Control.
Text: as §2

Another test deals with T28, INSR (Homo sapiens, UniProt P06213).
T28 construct: purchased Eurofins DiscoverX KINOMEscan
The experiment in a line: KINOMEscan at 1 μM, INSR. It counts as binding. The note with it: 1000 nM, read-out: Percent Control.
Text: as §2

A further test has as its target T29, CDC2L2 (Homo sapiens, UniProt Q9UQ88).
T29 construct: purchased Eurofins DiscoverX KINOMEscan
Put plainly: KINOMEscan at 1 μM, CDC2L2. It counts as binding. The note with it: 1000 nM, read-out: Percent Control.
Text: as §2

The target of the next test is T30, CHEK2 (Homo sapiens, UniProt O96017).
T30 construct: purchased Eurofins DiscoverX KINOMEscan
Put plainly: KINOMEscan at 1 μM, CHEK2. It counts as binding. Particulars: 1000 nM, read-out: Percent Control.
Text: as §2

The target of a further test is T31, LTK (Homo sapiens, UniProt P29376).
T31 construct: purchased Eurofins DiscoverX KINOMEscan
Put plainly: KINOMEscan binding assay at 1 μM, LTK. The note with it: Compound Concentration 1000 nM; read-out: Percent Control.
Text: as §2

T6 sequence (O60285 whole entry): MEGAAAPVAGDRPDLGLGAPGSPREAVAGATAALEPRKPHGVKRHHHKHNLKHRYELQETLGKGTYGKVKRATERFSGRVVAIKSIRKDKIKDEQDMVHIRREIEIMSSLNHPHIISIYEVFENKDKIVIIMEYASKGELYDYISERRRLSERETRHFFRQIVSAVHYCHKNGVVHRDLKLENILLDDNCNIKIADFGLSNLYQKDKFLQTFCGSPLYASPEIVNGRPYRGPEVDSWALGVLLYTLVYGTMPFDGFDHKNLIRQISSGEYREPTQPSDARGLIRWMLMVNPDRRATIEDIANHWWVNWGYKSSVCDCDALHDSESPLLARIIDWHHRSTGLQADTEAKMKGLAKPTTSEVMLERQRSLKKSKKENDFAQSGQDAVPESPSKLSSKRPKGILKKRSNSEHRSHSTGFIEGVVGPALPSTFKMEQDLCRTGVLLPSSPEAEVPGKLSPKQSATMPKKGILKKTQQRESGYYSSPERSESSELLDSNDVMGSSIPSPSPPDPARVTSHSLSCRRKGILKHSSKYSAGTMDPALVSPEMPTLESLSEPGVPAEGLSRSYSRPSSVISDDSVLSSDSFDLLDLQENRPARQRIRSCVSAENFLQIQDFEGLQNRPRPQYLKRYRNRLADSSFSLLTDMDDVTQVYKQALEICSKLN
T17 sequence (Q9P286 whole entry): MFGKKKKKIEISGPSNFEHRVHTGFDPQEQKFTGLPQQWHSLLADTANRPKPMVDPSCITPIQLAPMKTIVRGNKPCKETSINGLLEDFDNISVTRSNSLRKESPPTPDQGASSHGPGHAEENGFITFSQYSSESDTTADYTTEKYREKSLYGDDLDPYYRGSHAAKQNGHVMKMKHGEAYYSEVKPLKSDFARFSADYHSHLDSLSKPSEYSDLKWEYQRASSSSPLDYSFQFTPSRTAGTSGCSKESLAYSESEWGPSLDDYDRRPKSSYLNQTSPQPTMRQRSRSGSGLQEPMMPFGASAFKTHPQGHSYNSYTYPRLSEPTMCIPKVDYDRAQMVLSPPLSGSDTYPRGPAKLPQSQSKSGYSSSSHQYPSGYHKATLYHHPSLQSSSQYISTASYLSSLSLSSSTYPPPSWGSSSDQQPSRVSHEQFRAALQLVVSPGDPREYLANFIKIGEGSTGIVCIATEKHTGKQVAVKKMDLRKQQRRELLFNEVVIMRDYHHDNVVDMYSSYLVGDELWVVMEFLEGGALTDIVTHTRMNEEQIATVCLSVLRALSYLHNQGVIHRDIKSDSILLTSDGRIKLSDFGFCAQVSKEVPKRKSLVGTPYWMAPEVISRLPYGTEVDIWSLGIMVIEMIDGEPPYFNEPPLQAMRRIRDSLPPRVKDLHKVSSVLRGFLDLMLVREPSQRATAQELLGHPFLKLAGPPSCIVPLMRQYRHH
T12 sequence (Q15303 26-1308): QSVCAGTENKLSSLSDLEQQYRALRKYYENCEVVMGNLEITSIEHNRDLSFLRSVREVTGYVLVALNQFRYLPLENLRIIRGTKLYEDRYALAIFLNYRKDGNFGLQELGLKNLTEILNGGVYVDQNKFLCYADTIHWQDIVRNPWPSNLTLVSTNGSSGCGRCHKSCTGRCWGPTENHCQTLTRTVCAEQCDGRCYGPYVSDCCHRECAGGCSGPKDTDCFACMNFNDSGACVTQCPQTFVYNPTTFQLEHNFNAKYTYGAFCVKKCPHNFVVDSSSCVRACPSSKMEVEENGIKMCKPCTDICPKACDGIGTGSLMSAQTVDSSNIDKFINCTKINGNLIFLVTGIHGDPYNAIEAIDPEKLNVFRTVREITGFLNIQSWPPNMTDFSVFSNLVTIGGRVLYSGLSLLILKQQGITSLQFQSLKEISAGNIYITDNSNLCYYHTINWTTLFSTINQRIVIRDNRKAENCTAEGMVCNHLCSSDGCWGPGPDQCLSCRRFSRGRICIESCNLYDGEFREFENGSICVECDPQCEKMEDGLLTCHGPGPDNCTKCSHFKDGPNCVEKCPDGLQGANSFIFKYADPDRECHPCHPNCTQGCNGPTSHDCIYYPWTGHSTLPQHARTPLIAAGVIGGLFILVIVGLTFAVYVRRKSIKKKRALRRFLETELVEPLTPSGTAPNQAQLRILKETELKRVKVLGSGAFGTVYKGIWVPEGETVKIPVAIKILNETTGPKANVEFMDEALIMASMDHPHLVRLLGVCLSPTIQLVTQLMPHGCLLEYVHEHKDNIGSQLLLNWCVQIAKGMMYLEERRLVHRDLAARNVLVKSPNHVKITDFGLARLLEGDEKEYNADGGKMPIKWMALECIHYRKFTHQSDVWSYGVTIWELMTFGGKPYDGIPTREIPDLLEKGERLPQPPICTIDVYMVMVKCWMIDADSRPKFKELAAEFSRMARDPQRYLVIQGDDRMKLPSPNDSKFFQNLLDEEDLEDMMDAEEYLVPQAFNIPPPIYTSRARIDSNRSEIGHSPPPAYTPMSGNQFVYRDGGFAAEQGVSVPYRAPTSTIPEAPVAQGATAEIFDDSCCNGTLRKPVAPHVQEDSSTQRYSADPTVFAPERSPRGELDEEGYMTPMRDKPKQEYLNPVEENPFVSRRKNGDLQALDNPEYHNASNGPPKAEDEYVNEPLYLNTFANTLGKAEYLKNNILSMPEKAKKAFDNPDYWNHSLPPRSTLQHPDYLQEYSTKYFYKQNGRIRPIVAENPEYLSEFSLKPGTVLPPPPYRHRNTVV
T16 sequence (Q8IY84 whole entry): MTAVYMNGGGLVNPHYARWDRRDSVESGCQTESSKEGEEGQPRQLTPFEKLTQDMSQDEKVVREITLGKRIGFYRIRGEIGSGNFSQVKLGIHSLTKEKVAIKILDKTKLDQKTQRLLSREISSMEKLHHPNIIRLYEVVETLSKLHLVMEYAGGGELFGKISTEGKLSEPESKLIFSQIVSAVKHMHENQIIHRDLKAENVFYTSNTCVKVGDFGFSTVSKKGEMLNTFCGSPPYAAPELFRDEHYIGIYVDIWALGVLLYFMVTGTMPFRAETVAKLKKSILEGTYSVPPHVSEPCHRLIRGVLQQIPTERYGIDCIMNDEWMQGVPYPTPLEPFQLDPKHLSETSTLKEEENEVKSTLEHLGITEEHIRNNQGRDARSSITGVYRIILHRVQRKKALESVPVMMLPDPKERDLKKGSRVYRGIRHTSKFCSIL
T23 sequence (P15735 whole entry): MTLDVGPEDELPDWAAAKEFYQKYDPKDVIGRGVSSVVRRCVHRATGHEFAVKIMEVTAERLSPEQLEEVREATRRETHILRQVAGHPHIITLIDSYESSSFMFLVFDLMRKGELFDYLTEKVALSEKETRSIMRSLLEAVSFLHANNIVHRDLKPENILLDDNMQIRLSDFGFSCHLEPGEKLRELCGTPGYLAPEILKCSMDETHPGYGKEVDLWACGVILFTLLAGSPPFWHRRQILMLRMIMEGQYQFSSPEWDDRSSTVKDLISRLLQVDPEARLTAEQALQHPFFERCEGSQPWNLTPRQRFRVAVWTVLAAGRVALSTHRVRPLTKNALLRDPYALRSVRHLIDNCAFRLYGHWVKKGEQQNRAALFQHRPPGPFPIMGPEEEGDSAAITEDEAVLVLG
T14 sequence (P07948 whole entry): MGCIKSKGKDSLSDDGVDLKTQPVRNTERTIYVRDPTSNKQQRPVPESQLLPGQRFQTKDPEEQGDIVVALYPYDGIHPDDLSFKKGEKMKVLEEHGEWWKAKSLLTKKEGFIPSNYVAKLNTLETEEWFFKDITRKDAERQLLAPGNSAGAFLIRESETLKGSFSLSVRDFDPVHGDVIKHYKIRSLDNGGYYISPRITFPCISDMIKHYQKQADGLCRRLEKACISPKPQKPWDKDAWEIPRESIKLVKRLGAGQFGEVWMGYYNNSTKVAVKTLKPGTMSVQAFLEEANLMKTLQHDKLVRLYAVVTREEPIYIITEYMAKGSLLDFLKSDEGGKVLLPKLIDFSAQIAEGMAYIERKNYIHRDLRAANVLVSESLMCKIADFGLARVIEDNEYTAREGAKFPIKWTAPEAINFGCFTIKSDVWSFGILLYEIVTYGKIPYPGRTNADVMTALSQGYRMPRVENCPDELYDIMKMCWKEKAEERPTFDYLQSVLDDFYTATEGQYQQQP
T19 sequence (P36897 34-503): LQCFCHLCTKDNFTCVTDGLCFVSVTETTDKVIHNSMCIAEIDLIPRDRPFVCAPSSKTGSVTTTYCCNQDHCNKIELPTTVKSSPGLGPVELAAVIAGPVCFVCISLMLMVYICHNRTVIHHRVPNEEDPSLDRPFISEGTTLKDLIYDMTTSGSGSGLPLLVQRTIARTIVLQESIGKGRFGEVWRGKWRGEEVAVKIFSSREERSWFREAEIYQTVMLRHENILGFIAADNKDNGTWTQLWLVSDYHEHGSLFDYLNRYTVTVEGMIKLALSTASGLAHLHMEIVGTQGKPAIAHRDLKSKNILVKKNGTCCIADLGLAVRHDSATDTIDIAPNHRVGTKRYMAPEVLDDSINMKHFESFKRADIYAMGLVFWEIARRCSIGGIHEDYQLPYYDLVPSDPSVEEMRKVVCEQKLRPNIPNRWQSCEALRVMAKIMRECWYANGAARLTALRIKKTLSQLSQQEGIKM
T3 sequence (Q8TDR2 whole entry): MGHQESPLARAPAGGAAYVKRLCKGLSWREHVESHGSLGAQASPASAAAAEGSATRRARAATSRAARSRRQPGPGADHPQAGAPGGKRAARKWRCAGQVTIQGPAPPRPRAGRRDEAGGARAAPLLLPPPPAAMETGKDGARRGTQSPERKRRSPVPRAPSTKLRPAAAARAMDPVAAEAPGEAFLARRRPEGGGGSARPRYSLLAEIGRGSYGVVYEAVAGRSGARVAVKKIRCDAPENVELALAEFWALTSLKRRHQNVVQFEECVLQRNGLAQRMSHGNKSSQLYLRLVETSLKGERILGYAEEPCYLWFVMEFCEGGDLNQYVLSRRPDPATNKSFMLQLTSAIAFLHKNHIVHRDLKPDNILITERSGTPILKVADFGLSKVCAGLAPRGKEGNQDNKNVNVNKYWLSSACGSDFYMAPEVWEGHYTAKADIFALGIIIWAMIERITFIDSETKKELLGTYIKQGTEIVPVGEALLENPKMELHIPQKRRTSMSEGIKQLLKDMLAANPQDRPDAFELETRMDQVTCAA

As to `Cc1cccc(-c2cnc3occ(-c4ccc(C(=O)O)c(C5CCCC5)c4)c3c2)c1` [SGC-CAMKK2-1 (YL-36)], the remaining binding at 1 µM amounted to 61% at KIT(A829P); 69% at DYRK2; 73% on STK35; 85% on SLK; 94% at TBK1; 100% at ARK5 [1]. Further, the remaining binding at 1 µM on AXL, at BUB1, at CDK4, at DRAK1, on DYRK1B and on ERBB4 [2] was 100% throughout. The remaining binding at 1 µM on GRK1, on LYN, on MEK1, on NIM1, on PAK7 [3] and on ROCK1 was 100% throughout. In addition, the remaining binding at 1 µM (on TGFBR1; on TSSK1B; in [4]) was 100% throughout.
Regarding `O=C(O)c1ccc(-c2coc3ncc(-c4ccccc4)cc23)cc1Cl` [SGC-CAMKK2-1N (UNC-YL-83)], the remaining binding at 1 µM on CAMK1B is 61%; on PHKG2 it was 68%; at EPHA2, 76%; at SRPK2, 76%; at ERBB4 [5], 83%; on ARK5 [6], 84%. Also, the remaining binding at 1 µM was determined as 84% on PAK7 [7]; 91% on EPHB1; 93% at DDR1; 93% on INSR; 100% on CDC2L2; 100% on CHEK2. The remaining binding at 1 µM on LTK turned out to be 100%.
